From patent US9687459B2, “Aminocyclobutane derivatives, method for preparing same and the use thereof as drugs” (priority 2012, dated 2017)
Values joined by “and” are separate entries in the source; they are usually repeats but may differ in a detail not shown here. Equal entries are not always repeated. Where two headings read alike, the source gives them in different places.

How the values were obtained:
[1] = system: acute inflammatory pain model in the rat; conditions: for Paw licking % reduction at 40 mg/kg / Paw licking inhibition at 40 mg/kg (in words): 40 mg/kg ip, late phase; for Paw licking MSD (minimum significant dose): ip 15 min before formaldehyde, late phase 22.5-27.5 min
[2] = system: forced swimming model in the rat; test: Forced swimming test, immobility time; type: in vivo; conditions: for Immobility time % reduction at 20 mg/kg: 20 mg/kg ip; for ED50: ip 30 min before test, dose reducing immobility time by half relative to controls
Description: This height allows the rats to swim or to float without their paws touching the base of the cylinder. 24 hours before the test day, the rats are placed in the cylinder for 15 min, after which time they no longer attempt to escape and remain immobile at the surface. On the test day, the compound to be tested or the carrier is injected (ip) into the animal which is placed in the cylinder 30 min later. The duration of immobility (defined when the rat simply floats and only makes small movements to stay at the surface) is measured with an accuracy of 0.1 s for 5 minutes.

[3] = biological target: T1, recombinant human NMDA receptors constructed from NR1 and NR2B sub-units (Homo sapiens, UniProt Q05586+Q13224); test: Inhibition of NMDA current in Xenopus ovocytes, two electrode voltage clamp; type: cell-based
T1 construct: expressed in transfected cells; host or cells: Xenopus laevis oocytes injected with cRNA transcribed from pGEMHE constructs
Description: We examined the effects of the compounds of the invention on inhibition of the NMDA current in Xenope (Xenopus laevis) expressing recombinant human NMDA receptors constructed from NR1 and NR2B sub-units. The currents produced by stimulation of these receptors by means of endogenous agonists were studied according to the two electrode voltage clamp technique reported by Planells-Cases et al., 2002, J. Pharmacol. Exp. Ther., 302, 163-173.
Protocol: ovocytes were surgically removed from adults xenopes, enzymatically defolliculated and stored at 17° C. in a solution containing: 96 mM of NaCl, 2 mM of KCl, 1 mM of MgCl2, 1.8 mM of CaCl2 and 5 mM of HEPES at pH 7.5 (NaOH) and 50 mg/L of gentamycin (Heusler et al., 2005, Neuropharmacology, 49, 963-976). Complementary DNA (cDNA) coding for the NR1 sub-unit was cloned by PCR using primers targeted for start and end codons in the published sequence (Genebank access number M_007327). cDNA coding for the NR2B sub-unit was synthesised by Eurogentec (Seraing, Belgium) according to the published sequence (gene bank access number NM_000834). The NR1 and NR2B cDNA was then sub-cloned in the pGEMHE high expression carrier for in vitro transcription of cDNA. cRNA coding for NR1 and NR2B was prepared according to the method described by Heusler et al. (already cited). Aliquots of the cRNA solution were injected into the ovocytes ([…] for NR1 and 40-1000 pg/ovocyte for NR2B). Each ovocyte was injected with 100 nL of a solution containing: 4 mM of Na^+BAPTA (pH 7.2) in order to block all residual chlorine currents. After stabilisation, NMDA currents were activated by superfusion of glutamate and glycine each at a concentration of 10 μM. The compounds to be tested were then superfused in a Ringer Ba^++ solution at increasing concentrations in the presence of glutamate and glycine (4 to 5 concentrations were tested per ovocyte). The concentration-response codes obtained are analysed for each ovocyte by non-linear regression and a pIC50 value was calculated. pIC50 designates the negative logarithm of the compound concentration tested needed to reduce the amplitude of the NMDA current by half.

[4] = system: pre-pulse inhibition of the jolt reflex in the rat; test: Pre-pulse inhibition test for the jolt reflex (PPI); type: in vivo; conditions: FIG. 1
Description: We have already highlighted the importance of normalising the NMDA receptor function, in other words blocking its excessive activity without interfering, or interfering as little as possible, with its normal physiological functioning. As a marker of the interaction between the products of the invention and the normal functioning of the NMDA receptors, we chose the pre-pulse inhibition test for the jolt reflex (PPI). This test represents a measurement of the organism's capacity to filter non-essential information. Non-competitive and competitive antagonists as well as channel blockers reduce PPI in the rat (Depoortere et al., 1999, Behav. Pharmacol., 10, 51-62), such a reduction being considered to be predictive of the psychotomimetic effects of NMDA antagonists in humans.
Protocol: Male rats (Sprague-Dawley Iffa Credo, Les Oncins, France) were placed in 18.4 cm by 8.8 cm diameter cylinders resting on a base below which a piezoelectric accelerometer is fixed to act as a detector of the jolt reaction. This is enclosed in a box with a loudspeaker attached to the ceiling to deliver sound pulses and pre-pulses, and is acoustically isolated (SR LAB, San Diego Instruments, San Diego, USA). All the events are controlled by means of software. […] Three types of sound stimuli (white noise) are delivered; 1) a pulse of 118 dB (P, duration 40 msec); 2) a pre-pulse of 78 dB (duration 20 msec) followed by a pulse of 118 dB (pP); and 3) no pre-pulse or pulse (NP). The interval between the beginning of the pre-pulse and the beginning of the pulse is 100 msec, with background noise at 70 dB. The jolt reaction is recorded for 100 ms, 100 ms after the beginning of the stimulus (pP or NP) by a numerical/analogue acquisition card (12 bits). The session starts with a stimulus-free period of 5 min after which animals are exposed to 10 P (separated on average by 15 s and intended to stabilise the jolt reaction). The reactions recorded with these 10 P are not used for the calculation. After this, 10 P, 10 pP and 3 NP are delivered in a semi-random order with an average interval of 15 s in between. At the end of this pre-test, rats undergo an ip injection of the compounds to be tested or physiological serum as a control and are returned to their cages. The actual test session (similar on every point to the pre-test) is carried out 60 minutes later. The percentage inhibition of the pre-pulse is calculated using data from this test session according to the formula: (median amplitude P−median amplitude pP)×100/(median amplitude P).

[5] = ovocytes expressing human NR1/NR2B, glutamate and glycine each 10 μM, read-out: Inhibition of NMDA current pIC50 (converted)

T1 sequence (Q13224 27-1484, other chains not shown): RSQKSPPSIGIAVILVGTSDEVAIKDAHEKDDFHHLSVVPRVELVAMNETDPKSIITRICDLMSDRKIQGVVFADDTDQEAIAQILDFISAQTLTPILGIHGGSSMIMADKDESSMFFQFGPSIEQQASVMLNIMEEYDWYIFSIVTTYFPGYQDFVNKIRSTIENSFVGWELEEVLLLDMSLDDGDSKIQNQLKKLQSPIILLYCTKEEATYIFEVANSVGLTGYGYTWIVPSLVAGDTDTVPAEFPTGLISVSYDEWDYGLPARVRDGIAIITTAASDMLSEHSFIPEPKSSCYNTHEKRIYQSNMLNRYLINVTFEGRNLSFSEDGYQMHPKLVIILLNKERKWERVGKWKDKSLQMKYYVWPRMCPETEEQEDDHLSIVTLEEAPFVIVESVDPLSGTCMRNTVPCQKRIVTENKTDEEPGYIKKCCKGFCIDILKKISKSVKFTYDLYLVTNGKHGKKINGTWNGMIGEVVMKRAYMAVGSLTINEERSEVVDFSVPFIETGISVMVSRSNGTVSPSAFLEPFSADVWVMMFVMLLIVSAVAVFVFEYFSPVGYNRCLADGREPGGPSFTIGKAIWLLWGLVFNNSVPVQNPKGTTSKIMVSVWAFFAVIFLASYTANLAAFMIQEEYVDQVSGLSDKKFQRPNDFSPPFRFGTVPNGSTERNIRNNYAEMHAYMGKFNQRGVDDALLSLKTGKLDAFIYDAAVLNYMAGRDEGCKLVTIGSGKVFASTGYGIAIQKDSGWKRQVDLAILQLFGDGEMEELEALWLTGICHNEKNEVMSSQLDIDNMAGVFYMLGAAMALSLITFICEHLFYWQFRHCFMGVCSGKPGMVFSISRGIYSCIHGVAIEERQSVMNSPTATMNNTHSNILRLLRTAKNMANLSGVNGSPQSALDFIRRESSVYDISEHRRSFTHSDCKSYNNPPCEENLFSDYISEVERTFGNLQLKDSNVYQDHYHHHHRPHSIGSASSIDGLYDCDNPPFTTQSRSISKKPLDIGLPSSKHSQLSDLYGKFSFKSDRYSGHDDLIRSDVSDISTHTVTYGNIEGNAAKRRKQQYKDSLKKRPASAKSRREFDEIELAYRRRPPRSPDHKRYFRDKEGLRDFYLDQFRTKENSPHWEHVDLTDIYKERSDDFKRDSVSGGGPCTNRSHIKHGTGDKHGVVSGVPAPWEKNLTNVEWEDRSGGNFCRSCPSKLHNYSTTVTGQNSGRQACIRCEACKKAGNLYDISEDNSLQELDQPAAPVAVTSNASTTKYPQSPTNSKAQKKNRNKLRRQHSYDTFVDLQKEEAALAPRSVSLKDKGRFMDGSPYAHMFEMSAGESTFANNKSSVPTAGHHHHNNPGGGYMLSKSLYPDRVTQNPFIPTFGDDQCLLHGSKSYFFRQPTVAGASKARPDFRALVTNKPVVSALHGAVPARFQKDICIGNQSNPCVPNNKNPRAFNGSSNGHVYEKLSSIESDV

Row | SMILES | Paw licking % reduction at 40 mg/kg [1] [%] | Paw licking inhibition at 40 mg/kg (in words) [1] | Paw licking MSD (minimum significant dose) [1] [mg/kg] | Immobility time % reduction at 20 mg/kg [2] [%] | ED50 [2] [mg/kg] | IC50 [3] [nM] | IC50 [3, 5] [nM] | also measured
1 | CCN(CC)C(=O)[C@]1(c2cccc(Cl)c2)C[C@@H](N)C1 [Compound 1e, trans-3-amino-N,N-diethyl-1-(3-chlorophenyl)-cyclobutanecarboxamide] | 100 | completely inhibited | 10 | 77 | 15 | 79.4 | – | –
2 | CCN(CC)C(=O)[C@]1(c2cccc(OC)c2)C[C@@H](N)C1 [Compound 1d, trans-3-amino-N,N-diethyl-1-(3-methoxyphenyl)-cyclobutanecarboxamide] | – | – | – | – | – | – | 398 | –
3 | CCN(CC)C(=O)[C@]1(c2cccc(F)c2)C[C@@H](N)C1 [Compound 1c, trans-3-amino-N,N-diethyl-1-(3-fluorophenyl)-cyclobutanecarboxamide] | – | – | – | 83 | 13 | – | 158 | –
4 | CCN(CC)C(=O)[C@]1(c2ccccc2)C[C@@H](N)C1 [Compound 1a1, trans-3-amino-N,N-diethyl-1-phenylcyclobutanecarboxamide] | 100 | completely inhibited | 10 | – | – | – | 501 | Reduction in PPI at 20 mg/kg ([4]; 20 mg/kg ip, test 60 min after injection): 30%; PPI reduction at 40 mg/kg (in words) ([4]; 40 mg/kg): modest; Dose from which PPI is disrupted ([4]; ip): ≥ 20 mg/kg
5 | CNC1(c2ccccc2Cl)CCCCC1=O (stereo not drawn) [ketamine, reference compound] | – | – | 40 | 50 | 20 | 794 | – | Paw licking % reduction at 40 mg/kg ([1]; 40 mg/kg): 74% and 75%; Effect on PPI at 20 mg/kg (in words) ([4]; 20 mg/kg ip): total disappearance of PPI
6 | CCN(CC)C(=O)[C@]1(c2ccccc2F)C[C@@H](N)C1 [Compound 1b, trans-3-amino-N,N-diethyl-1-(2-fluorophenyl)-cyclobutanecarboxamide] | – | – | – | – | – | – | 501 | –
